Tested on: ABCA1 mRNA in THP-1 cells
Assay: ABCA1 bDNA assay (ABCA1 mRNA induction)
Assay type: cell-based
Conditions: Homo sapiens, ABCA1 mRNA induction, usually 18-24 hrs
Description: THP-1 cells, a human monocytic cell line, were obtained from ATCC and maintained in RPMI (Gibco) supplemented with 10% fetal bovine serum (Gibco), 2mM L-glutamine and 1% antibiotic-antimycotic in 5% CO2 at 37° C. For ABCA1 mRNA induction assays, the cells were pelleted and resuspended in RPMI supplemented with 0.5% charcoal treated serum (Hyclone), 2 mM glutamine and 1% antibiotic-antimycotic. The cells were plated at a density of 40,000 cells/90 μl and incubated as above for at least 4 hours before the initiation of treatments. Compounds were prepared as 10 mM stocks in DMSO. For treatments, the compounds were diluted in medium and 10 μl of 10× stocks were added to the cells at a final concentration 0.1% DMSO. The cells were incubated for the desired amount of time (usually 18-24 hrs) and then lyzed with 50 μl of Quantigene HV bDNA lysis buffer which also contained the ABCA1 bDNA probes (probe sequences shown below): […]

Compound | EC50
CCN1C(=O)CN(C(C)C)c2cc(C)c(-c3cc(/C=C/C(=O)O)ccc3OC(F)(F)F)cc21 [Compound 25, 3-[3-(4-Ethyl-1-isopropyl-7-methyl-3-oxo-1,2,3,4-tetrahydro-quinoxalin-6-yl)-4-trifluoromethoxy-phenyl]-acrylic acid] | > 2 µM
CCN1C(=O)OC(C)(C)c2cc(C)c(-c3cc(/C=C/C(=O)O)ccc3OC(F)(F)F)cc21 [Compound 14, 3-[3-(1-Ethyl-4,4,6-trimethyl-2-oxo-1,4-dihydro-2H-benzo[d][1,3]oxazin-7-yl)-4-trifluoromethoxy-phenyl]-acrylic acid] | > 2 µM
CCn1c(=O)c(=O)n(CC)c2cc(-c3cc(/C=C/C(=O)O)ccc3OC(F)(F)F)c(C)cc21 [Compound 24, 3-[3-(1,4-Diethyl-7-methyl-2,3-dioxo-1,2,3,4-tetrahydro-quinoxalin-6-yl)-4-trifluoromethoxy-phenyl]-acrylic acid] | > 2 µM
CCN1C(=O)OC(C)(C)c2cc(C)c(-c3cc(CCC(=O)O)ccc3OC(F)(F)F)cc21 [Compound 17, 3-[3-(1-Ethyl-4,4,6-trimethyl-2-oxo-1,4-dihydro-2H-benzo[d][1,3]oxazin-7-yl)-4-trifluoromethoxy-phenyl]-propionic acid] | > 2 µM
CCN1C(=O)OC(C)(C)c2cc(C)c(-c3cc([C@@H]4C[C@H]4C(=O)O)ccc3OC(F)(F)F)cc21 [Compound 19, 2-[3-(1-Ethyl-4,4,6-trimethyl-2-oxo-1,4-dihydro-2H-benzo[d][1,3]oxazin-7-yl)-4-trifluoromethoxy-phenyl]-cyclopropanecarboxylic acid] | > 2 µM
CCN1C(=O)C(C)Oc2cc(C)c(-c3cc(/C=C/C(=O)O)ccc3OC(F)(F)F)cc21 (stereo not drawn) [Compound 7, 3-[3-(4-Ethyl-2,7-dimethyl-3-oxo-3,4-dihydro-2H-benzo[1,4]oxazin-6-yl)-4-trifluoromethoxy-phenyl]-acrylic acid] | > 2 µM
CCN1C(=O)C(C(C)C)Oc2cc(C)c(-c3cc(/C=C/C(=O)O)ccc3OC(F)(F)F)cc21 (stereo not drawn) [Compound 9, 3-[3-(4-Ethyl-2-isopropyl-7-methyl-3-oxo-3,4-dihydro-2H-benzo[1,4]oxazin-6-yl)-4-trifluoromethoxy-phenyl]-acrylic acid] | > 2 µM
CCC1Oc2cc(C)c(-c3cc(/C=C/C(=O)O)ccc3OC(F)(F)F)cc2N(CC)C1=O (stereo not drawn) [Compound 8, 3-[3-(2,4-Diethyl-7-methyl-3-oxo-3,4-dihydro-2H-benzo[1,4]oxazin-6-yl)-4-trifluoromethoxy-phenyl]-acrylic acid] | > 2 µM
CCN1C(=O)OCc2cc(C)c(-c3cc(/C=C/C(=O)O)ccc3OC(F)(F)F)cc21 [Compound 15, 3-[3-(1-Ethyl-6-methyl-2-oxo-1,4-dihydro-2H-benzo[d][1,3]oxazin-7-yl)-4-trifluoromethoxy-phenyl]-acrylic acid] | > 2 µM
CCN1C(=O)OCc2cc(C)c(-c3cc([C@@H]4C[C@H]4C(=O)O)ccc3OC(F)(F)F)cc21 (racemic) [Compound 21, 2-[3-(1-Ethyl-6-methyl-2-oxo-1,4-dihydro-2H-benzo[d][1,3]oxazin-7-yl)-4-trifluoromethoxy-phenyl]-cyclopropanecarboxylic acid] | > 2 µM
CCN1C(=O)OC(C(C)C)c2cc(C)c(-c3cc(/C=C/C(=O)O)ccc3OC(F)(F)F)cc21 (stereo not drawn) [Compound 16, 3-[3-(1-Ethyl-4-isopropyl-6-methyl-2-oxo-1,4-dihydro-2H-benzo[d][1,3]oxazin-7-yl)-4-trifluoromethoxy-phenyl]-acrylic acid] | > 2 µM
CCN1CC(C)(C)Oc2cc(C)c(-c3cc(/C=C/C(=O)O)ccc3OC(F)(F)F)cc21 [Compound 27, 3-[3-(4-Ethyl-2,2,7-trimethyl-3,4-dihydro-2H-benzo[1,4]oxazin-6-yl)-4-trifluoromethoxy-phenyl]-acrylic acid] | > 2 µM
